Article PMC10294756 (Journal of Enzyme Inhibition and Medicinal Chemistry, 2023)

What was measured:
[1] = test system: transcriptional activity of Nur77 in Hela cells; test: Dual-luciferase reporter assay; type: cell-based; conditions: 24 h treatment
[2] = test system: HuH7; test: MTT assay, HuH7 cells; type: cell-based, human; conditions: Homo sapiens, Huh-7, 48 h, read-out: IC50 HuH7
[3] = test system: SMMC-7721; test: MTT assay, SMMC-7721 cells; type: cell-based, human; conditions: Homo sapiens, SMMC-7721, 48 h, read-out: IC50 SMMC-7721
[4] = test system: HuH7 cells; test: Cell cycle analysis by flow cytometry, HuH7; type: cell-based, human; conditions: 10 h
[5] = test system: A549-Nur77-/- cells; test: Cell cycle analysis by flow cytometry, A549 Nur77-/-; type: cell-based, human; conditions: 10 h
[6] = test system: HuH7 cells; test: Annexin V-FITC/PI apoptosis detection assay, HuH7; type: cell-based, human; conditions: 24 h
[7] = test system: HuH7; test: Colony formation assay, HuH7; type: cell-based, human; conditions: HuH7, one week
[8] = In vivo PK study; design: species or system Sprague-Dawley (SD) rats
[9] = test system: LO2; test: MTT assay, normal hepatocyte LO2; type: cell-based, human; conditions: Homo sapiens, L02, 48 h, read-out: IC50 LO2, normal liver cell line, MTT, 48 h
[10] = test system: HepG2; test: Colony formation assay, HepG2; type: cell-based, human; conditions: HepG2, one week
[11] = test system: cleaved-PARP, LC3-II and Nur77 in HepG2 cells; test: Western blotting, HepG2 cells; type: cell-based, human
[12] = test system: cleaved-PARP and LC3-II in HuH7 cells; test: Western blotting, HuH7 cells; type: cell-based, human; conditions: HuH7, 24 h
[13] = test system: HepG2; test: MTT assay, HepG2 cells; type: cell-based, human; conditions: Homo sapiens, HepG2, 48 h, read-out: IC50 HepG2
[14] = test system: HepG2 cells; test: Cell cycle analysis by flow cytometry, HepG2; type: cell-based, human; conditions: 10 h
[15] = test system: HepG2 cells; test: Annexin V-FITC/PI apoptosis detection assay, HepG2; type: cell-based, human; conditions: HepG2, 1.0 μM, 24 h
[16] = test system: HCC cell lines (HepG2, HuH7, and SMMC-7721); test: MTT assay, results stated over the three HCC cell lines; type: cell-based; conditions: Homo sapiens, 48 h, read-out: IC50 against HCC cells (span over cell lines)
[17] = female, Sprague-Dawley, rat, plasma, iv, 2 mg/kg
[18] = female, Sprague-Dawley, rat, plasma, po, 20 mg/kg

IC50 [2]: 4.09 ± 0.89 µM
IC50 [3]: 7.68 ± 1.3 µM
CL ([8]; SD rats, p.o. 20 mg/kg): 119.18 ± 18.43 L/h/kg
Vz ([8]; SD rats, p.o. 20 mg/kg): 192.55 ± 22.13 L/kg
AUC(0-inf) [8, 17]: 0.247 ± 0.0726 µg·h/mL
Cmax [8, 17]: 0.293 ± 0.0455 µg/mL
Tmax [8, 17]: 0.08 h
Vd [8, 17]: 22.2 ± 10.1 L/kg
clearance [8, 17]: 8.6 L/h/kg
half-life [8, 17]: 1.54 ± 0.35 h
AUC(0-inf) [8, 18]: 0.17 ± 0.0255 µg·h/mL
Cmax [8, 18]: 0.0196 ± 0.00097 µg/mL
Tmax [8, 18]: 5.83 ± 3.75 h
half-life [8, 18]: 1.13 ± 0.09 h
IC50 [13]: 2.33 ± 0.14 µM
IC50 [16]: 2.33 to 7.68 µM
SMILES: Cc1cc(Nc2ccc(C(=O)N/N=C/c3scnc3C)cc2)c2cccc(O)c2n1 [TMHA37, (E)-4-((8-hydroxy-2-methylquinolin-4-yl)amino)-N'-((4-methylthiazol-5-yl)methylene)benzohydrazide]
reporter activity [1]: significantly increased the reporter fluorescence intensity in a dose-dependent manner
cells in G2 (G2/M) ([4]; HuH7, TMHA37 1 μM): 20.07%
cells in G2 (G2/M) ([4]; HuH7, TMHA37 10 μM): 48.26%
TMHA37-caused G2/M arrest in Nur77-knockdown A549 cells compared to control cells [5]: significantly decreased
apoptotic cells ([6]; HuH7, 1.0 μM): 12.82%
apoptotic cells ([6]; HuH7, 10.0 μM): 69.50%
colony formation [7]: significantly and dose-dependently inhibited the colony formation
IC50 [9]: 21.2 ± 1.79 µM
colony formation [10]: significantly and dose-dependently inhibited the colony formation
Nur77 protein expression in cytoplasm and nucleus ([11]; HepG2, 10 μM, 3 h): increased the protein expression levels of Nur77 in both cytoplasm and nuclear
LC3-II level ([11]; HepG2, 24 h): dose-dependently increased the level of LC3-II
cleaved-PARP level ([11]; HepG2, 24 h): dose-dependent upregulation of cleaved-PARP
LC3-II level [12]: dose-dependently increased the level of LC3-II
cleaved-PARP level [12]: dose-dependent upregulation of cleaved-PARP
cells in G2 (G2/M) ([14]; HepG2, TMHA37 1 μM): 26.72%
cells in G2 (G2/M) ([14]; HepG2, TMHA37 10 μM): 63.17%
apoptotic cells [15]: 6.42%
